System: Hep G2 (human hepatocellular carcinoma)
Experiment: Non-lethal concentration range for chemical exposure of Hep G2 cells
Assay type: cell-based
Method: The hepatocyte cell line, Hep G2 (human hepatocellular carcinoma, obtained from the American Type Culture Collection, Rockville Md., ATCC#HB-8065), was used to evaluate the effects of various chemicals on expression of a set of genes known to be involved in cellular toxicological responses. The cells were routinely maintained in T75 flasks in Eagle's MEM medium (with non-essential amino acids, sodium pyruvate, and Earle's salts) and 10% fetal bovine serum at 37° C. in a humidified atmosphere of 5% CO2. The chemicals used in exposure experiments included cadmium chloride (CdCl2) and methyl methane sulfonate (MMS). CdCl2 is a strong inducer of metallothionein, a metal-binding protein, and is known to be carcinogenic and capable of interfering with DNA repair. MMS is an alkylating agent that induces DNA damage. Dilutions of these compounds were prepared from concentrated stocks obtained from Aldrich Chemical Company (Milwaukee, Wis.). Water was used as the solvent control in dosing studies. […] These concentration ranges were empirically determined to not be lethal to cells for the duration of the exposure period. […] Cell number was quantitated using a dye incorporation assay, CyQUANT from Molecular Probes (Eugene, Oreg.).

## [Cl][Cd][Cl] [CdCl2, cadmium chloride]
Final concentrations 10^-4M to 10^-6M CdCl2, 3 hours exposure
  lethality to cells for the duration of the exposure period: not be lethal

## COS(C)(=O)=O [MMS, methyl methane sulfonate]
Final concentrations 0.5 mM to 2 mM MMS, 3 hours exposure
  lethality to cells for the duration of the exposure period: not be lethal

— US6618679B2, “Methods for analysis of gene expression” (priority 2000, dated 2003)
